Data as given in US6355799B1, “Substituted benzene compounds, process for their preparation, and herbicidal and defoliant compositions containing them” (ISK Americas Incorporated, priority 1997, dated 2002).

How the values were obtained:
Format in all cases: in vivo
[1] = test system: field corn (Zea mays L., var. Dekalb 535, CORN); experiment: Pre-emerge test, crop safety; details: pre-emerge, rated 14 days after application, 0 = no damage, 100 = complete death
Method in brief: (§1)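 Compounds in acetone were track-sprayed at 15-1000 g ai/ha (187 l/ha) on sandy loam pots: pre-emerge one day after seeding, post-emerge at 2-3 leaf stage with 0.25% v/v non-ionic surfactant. Phytotoxicity was rated 14 days later on a 0 (no damage) to 100 (complete death) scale.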

[2] = test system: upland rice (Oryza sp., var. Tebonnet, RICE); experiment: Pre-emerge test, crop safety; details: pre-emerge, rated 14 days after application, 0 = no damage, 100 = complete death
Method in brief: as §1

[3] = test system: lambsquarters (Chenopodium album, CHEAL); experiment: Post-emerge test, greenhouse herbicide activity screening; details: phytotoxicity rating 0-100 (0 no damage, 100 complete death), 14 days after application
Method in brief: as §1

[4] = test system: velvetleaf (Abutilon theophrasti, ABUTH); experiment: as above; details: phytotoxicity rating 0-100 (0 no damage, 100 complete death), 14 days after application
Method in brief: as §1

[5] = test system: sicklepod (Cassia obtusifolia, CASOB); experiment: as above; details: phytotoxicity rating 0-100 (0 no damage, 100 complete death), 14 days after application
Method in brief: as §1

[6] = test system: johnsongrass (Sorghum halepense, SORHA); experiment: as above; details: phytotoxicity rating 0-100 (0 no damage, 100 complete death), 14 days after application
Method in brief: as §1

[7] = test system: redroot pigweed (Amaranthus retroflexus, AMARE); experiment: as above; details: phytotoxicity rating 0-100 (0 no damage, 100 complete death), 14 days after application
Method in brief: as §1

[8] = test system: ivyleaf morningglory (Ipomoea hederacea, IPOHE); experiment: as above; details: phytotoxicity rating 0-100 (0 no damage, 100 complete death), 14 days after application
Method in brief: as §1

[9] = test system: large crabgrass (Digitaria sanguinalis, DIGSA); experiment: as above; details: phytotoxicity rating 0-100 (0 no damage, 100 complete death), 14 days after application
Method in brief: as §1

[10] = test system: barnyardgrass (Echinochloa crus-galli, ECHCG); experiment: as above; details: phytotoxicity rating 0-100 (0 no damage, 100 complete death), 14 days after application
Method in brief: as §1

[11] = test system: green foxtail (Setaria viridis, SETVI); experiment: as above; details: phytotoxicity rating 0-100 (0 no damage, 100 complete death), 14 days after application
Method in brief: as §1

[12] = test system: lambsquarters (Chenopodium album, CHEAL); experiment: Pre-emerge test, greenhouse herbicide activity screening; details: pre-emerge, rated 14 days after application, 0 = no damage, 100 = complete death
Method in brief: (§2)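 Fourteen days after spraying, crop and weed injury was graded visually from 0, no effect, to 100, every plant dead. Test substances were dissolved in acetone and applied at 15–1000 g ai/ha with a flat-fan nozzle. Application was either pre-emergence, one day after sowing, or post-emergence at the 2–3 leaf stage.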

[13] = test system: velvetleaf (Abutilon theophrasti, ABUTH); experiment: as above; details: pre-emerge, rated 14 days after application, 0 = no damage, 100 = complete death
Method in brief: as §2

[14] = test system: sicklepod (Cassia obtusifolia, CASOB); experiment: as above; details: pre-emerge, rated 14 days after application, 0 = no damage, 100 = complete death
Method in brief: as §2

[15] = test system: johnsongrass (Sorghum halepense, SORHA); experiment: as above; details: pre-emerge, rated 14 days after application, 0 = no damage, 100 = complete death
Method in brief: as §2

[16] = test system: ivyleaf morningglory (Ipomoea hederacea, IPOHE); experiment: as above; details: pre-emerge, rated 14 days after application, 0 = no damage, 100 = complete death
Method in brief: as §2

[17] = test system: large crabgrass (Digitaria sanguinalis, DIGSA); experiment: as above; details: pre-emerge, rated 14 days after application, 0 = no damage, 100 = complete death
Method in brief: as §2

[18] = test system: barnyardgrass (Echinochloa crus-galli, ECHCG); experiment: as above; details: pre-emerge, rated 14 days after application, 0 = no damage, 100 = complete death
Method in brief: as §2

[19] = test system: green foxtail (Setaria viridis, SETVI); experiment: as above; details: pre-emerge, rated 14 days after application, 0 = no damage, 100 = complete death
Method in brief: as §2

[20] = test system: redroot pigweed (Amaranthus retroflexus, AMARE); experiment: as above; details: pre-emerge, rated 14 days after application, 0 = no damage, 100 = complete death
Method in brief: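 Rating: 0–100 visual injury, 14 DAA. Application: acetone, 187 l/ha, 15–1000 g ai/ha, flat-fan track sprayer with nozzle 40–45 cm above soil or canopy. Post-emerge runs used 0.25% v/v surfactant on 2–3 leaf plants.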

[21] = test system: field corn (Zea mays L., var. Dekalb 535, CORN); experiment: Post-emerge test, crop safety; details: phytotoxicity rating 0-100 (0 no damage, 100 complete death), 14 days after application
Method in brief: as §2

[22] = test system: upland rice (Oryza sp., var. Tebonnet, RICE); experiment: Post-emerge test, crop safety; details: phytotoxicity rating 0-100 (0 no damage, 100 complete death), 14 days after application
Method in brief: as §2

## C#CCOc1c(Cl)cc(F)c(-n2c(=O)cc(C(F)(F)F)n(C)c2=O)c1N [Compound 1-19]
[1]; 63 g ai/ha
  Pre-emerge crop damage CORN (phytotoxicity rating, scale 0-100): 50
[1]; 250 g ai/ha
  Pre-emerge crop damage CORN (phytotoxicity rating, scale 0-100): 80
[2]; 63 g ai/ha
  Pre-emerge crop damage RICE (phytotoxicity rating, scale 0-100): 80
[2]; 250 g ai/ha
  Pre-emerge crop damage RICE (phytotoxicity rating, scale 0-100): 95
[3]; 63 g ai/ha
  Post-emerge Herbicidal Activity CHEAL: 30
[3]; 250 g ai/ha
  Post-emerge Herbicidal Activity CHEAL: 90
[4]; 63 g ai/ha
  Post-emerge Herbicidal Activity ABUTH: 100
[4]; 250 g ai/ha
  Post-emerge Herbicidal Activity ABUTH: 100
[5]; 63 g ai/ha
  Post-emerge Herbicidal Activity CASOB: 10
[5]; 250 g ai/ha
  Post-emerge Herbicidal Activity CASOB: 30
[6]; 63 g ai/ha
  Post-emerge Herbicidal Activity SORHA: 0
[6]; 250 g ai/ha
  Post-emerge Herbicidal Activity SORHA: 70
[7]; 63 g ai/ha
  Post-emerge Herbicidal Activity AMARE: 30
[7]; 250 g ai/ha
  Post-emerge Herbicidal Activity AMARE: 70
[8]; 63 g ai/ha
  Post-emerge Herbicidal Activity IPOHE: 30
[8]; 250 g ai/ha
  Post-emerge Herbicidal Activity IPOHE: 95
[9]; 63 g ai/ha
  Post-emerge Herbicidal Activity DIGSA: 0
[9]; 250 g ai/ha
  Post-emerge Herbicidal Activity DIGSA: 10
[10]; 63 g ai/ha
  Post-emerge Herbicidal Activity ECHCG: 0
[10]; 250 g ai/ha
  Post-emerge Herbicidal Activity ECHCG: 80
[11]; 63 g ai/ha
  Post-emerge Herbicidal Activity SETVI: 20
[11]; 250 g ai/ha
  Post-emerge Herbicidal Activity SETVI: 95
[12]; 63 g ai/ha
  Pre-emerge Herbicidal Activity CHEAL (phytotoxicity rating, scale 0-100): 100
[12]; 250 g ai/ha
  Pre-emerge Herbicidal Activity CHEAL (phytotoxicity rating, scale 0-100): 100
[13]; 63 g ai/ha
  Pre-emerge Herbicidal Activity ABUTH (phytotoxicity rating, scale 0-100): 100
[13]; 250 g ai/ha
  Pre-emerge Herbicidal Activity ABUTH (phytotoxicity rating, scale 0-100): 100
[14]; 63 g ai/ha
  Pre-emerge Herbicidal Activity CASOB (phytotoxicity rating, scale 0-100): 90
[14]; 250 g ai/ha
  Pre-emerge Herbicidal Activity CASOB (phytotoxicity rating, scale 0-100): 100
[15]; 63 g ai/ha
  Pre-emerge Herbicidal Activity SORHA (phytotoxicity rating, scale 0-100): 90
[15]; 250 g ai/ha
  Pre-emerge Herbicidal Activity SORHA (phytotoxicity rating, scale 0-100): 100
[16]; 63 g ai/ha
  Pre-emerge Herbicidal Activity IPOHE (phytotoxicity rating, scale 0-100): 60
[16]; 250 g ai/ha
  Pre-emerge Herbicidal Activity IPOHE (phytotoxicity rating, scale 0-100): 100
[17]; 63 g ai/ha
  Pre-emerge Herbicidal Activity DIGSA (phytotoxicity rating, scale 0-100): 95
[17]; 250 g ai/ha
  Pre-emerge Herbicidal Activity DIGSA (phytotoxicity rating, scale 0-100): 100
[18]; 63 g ai/ha
  Pre-emerge Herbicidal Activity ECHCG (phytotoxicity rating, scale 0-100): 90
[18]; 250 g ai/ha
  Pre-emerge Herbicidal Activity ECHCG (phytotoxicity rating, scale 0-100): 100
[19]; 63 g ai/ha
  Pre-emerge Herbicidal Activity SETVI (phytotoxicity rating, scale 0-100): 100
[19]; 250 g ai/ha
  Pre-emerge Herbicidal Activity SETVI (phytotoxicity rating, scale 0-100): 100
[20]; 63 g ai/ha
  Pre-emerge Herbicidal Activity AMARE (phytotoxicity rating, scale 0-100): 95
[20]; 250 g ai/ha
  Pre-emerge Herbicidal Activity AMARE (phytotoxicity rating, scale 0-100): 100
[21]; 63 g ai/ha
  Post-emerge Herbicidal Activity CORN (crop damage): 5
[21]; 250 g ai/ha
  Post-emerge Herbicidal Activity CORN (crop damage): 45
[22]; 63 g ai/ha
  Post-emerge Herbicidal Activity RICE (crop damage): 25
[22]; 250 g ai/ha
  Post-emerge Herbicidal Activity RICE (crop damage): 80

## COC(=O)C=CCOc1c(Cl)cc(F)c(-n2c(=O)cc(C(F)(F)F)n(C)c2=O)c1N [Compound 1-20]
[1]; 63 g ai/ha
  Pre-emerge crop damage CORN (phytotoxicity rating, scale 0-100): 15
[1]; 250 g ai/ha
  Pre-emerge crop damage CORN (phytotoxicity rating, scale 0-100): 65
[2]; 63 g ai/ha
  Pre-emerge crop damage RICE (phytotoxicity rating, scale 0-100): 60
[2]; 250 g ai/ha
  Pre-emerge crop damage RICE (phytotoxicity rating, scale 0-100): 70
[3]; 63 g ai/ha
  Post-emerge Herbicidal Activity CHEAL: 90
[3]; 250 g ai/ha
  Post-emerge Herbicidal Activity CHEAL: 100
[4]; 63 g ai/ha
  Post-emerge Herbicidal Activity ABUTH: 100
[4]; 250 g ai/ha
  Post-emerge Herbicidal Activity ABUTH: 100
[5]; 63 g ai/ha
  Post-emerge Herbicidal Activity CASOB: 0
[5]; 250 g ai/ha
  Post-emerge Herbicidal Activity CASOB: 50
[6]; 63 g ai/ha
  Post-emerge Herbicidal Activity SORHA: 10
[6]; 250 g ai/ha
  Post-emerge Herbicidal Activity SORHA: 70
[7]; 63 g ai/ha
  Post-emerge Herbicidal Activity AMARE: 90
[7]; 250 g ai/ha
  Post-emerge Herbicidal Activity AMARE: 100
[8]; 63 g ai/ha
  Post-emerge Herbicidal Activity IPOHE: 100
[8]; 250 g ai/ha
  Post-emerge Herbicidal Activity IPOHE: 100
[9]; 63 g ai/ha
  Post-emerge Herbicidal Activity DIGSA: 10
[9]; 250 g ai/ha
  Post-emerge Herbicidal Activity DIGSA: 20
[10]; 63 g ai/ha
  Post-emerge Herbicidal Activity ECHCG: 30
[10]; 250 g ai/ha
  Post-emerge Herbicidal Activity ECHCG: 80
[11]; 63 g ai/ha
  Post-emerge Herbicidal Activity SETVI: 0
[11]; 250 g ai/ha
  Post-emerge Herbicidal Activity SETVI: 60
[12]; 63 g ai/ha
  Pre-emerge Herbicidal Activity CHEAL (phytotoxicity rating, scale 0-100): 100
[12]; 250 g ai/ha
  Pre-emerge Herbicidal Activity CHEAL (phytotoxicity rating, scale 0-100): 100
[13]; 63 g ai/ha
  Pre-emerge Herbicidal Activity ABUTH (phytotoxicity rating, scale 0-100): 100
[13]; 250 g ai/ha
  Pre-emerge Herbicidal Activity ABUTH (phytotoxicity rating, scale 0-100): 100
[14]; 63 g ai/ha
  Pre-emerge Herbicidal Activity CASOB (phytotoxicity rating, scale 0-100): 100
[14]; 250 g ai/ha
  Pre-emerge Herbicidal Activity CASOB (phytotoxicity rating, scale 0-100): 100
[15]; 63 g ai/ha
  Pre-emerge Herbicidal Activity SORHA (phytotoxicity rating, scale 0-100): 30
[15]; 250 g ai/ha
  Pre-emerge Herbicidal Activity SORHA (phytotoxicity rating, scale 0-100): 70
[16]; 63 g ai/ha
  Pre-emerge Herbicidal Activity IPOHE (phytotoxicity rating, scale 0-100): 40
[16]; 250 g ai/ha
  Pre-emerge Herbicidal Activity IPOHE (phytotoxicity rating, scale 0-100): 100
[17]; 63 g ai/ha
  Pre-emerge Herbicidal Activity DIGSA (phytotoxicity rating, scale 0-100): 50
[17]; 250 g ai/ha
  Pre-emerge Herbicidal Activity DIGSA (phytotoxicity rating, scale 0-100): 90
[18]; 63 g ai/ha
  Pre-emerge Herbicidal Activity ECHCG (phytotoxicity rating, scale 0-100): 50
[18]; 250 g ai/ha
  Pre-emerge Herbicidal Activity ECHCG (phytotoxicity rating, scale 0-100): 100
[19]; 63 g ai/ha
  Pre-emerge Herbicidal Activity SETVI (phytotoxicity rating, scale 0-100): 80
[19]; 250 g ai/ha
  Pre-emerge Herbicidal Activity SETVI (phytotoxicity rating, scale 0-100): 100
[20]; 63 g ai/ha
  Pre-emerge Herbicidal Activity AMARE (phytotoxicity rating, scale 0-100): 100
[20]; 250 g ai/ha
  Pre-emerge Herbicidal Activity AMARE (phytotoxicity rating, scale 0-100): 100
[21]; 63 g ai/ha
  Post-emerge Herbicidal Activity CORN (crop damage): 10
[21]; 250 g ai/ha
  Post-emerge Herbicidal Activity CORN (crop damage): 40
[22]; 63 g ai/ha
  Post-emerge Herbicidal Activity RICE (crop damage): 20
[22]; 250 g ai/ha
  Post-emerge Herbicidal Activity RICE (crop damage): 50
